Where two headings read alike, the source gives them in different places.
Assays:
Type in all cases: cell-based
hERG potassium channel = hERG potassium channel (Homo sapiens, UniProt Q12809); experiment: hERG screening assay (PatchXpress, CHO cells); design: hERG: unit not given here
Method: Compounds were also tested for their effect to block the hERG K^+ channel.
Compounds were screened to test their activity in blocking the hERG potassium channel at AVIVA Biosciences (San Deigo, Calif., USA). The hERG channel is heterologously expressed in a CHO (Chinese Hamster Ovary) cell line. Cells were maintained with standard tissue culture procedures and stable channel expression was maintained with 500 μg/mL G418 in the culture medium. Cells were harvested for testing on the PatchXpress 7000A automated patch clamp with Accumax (Innovative Cell Technologies, San Diego, Calif.) to isolate single cells.
The following solutions were used for electrophysiological recordings. The external solution contained: 2 mM CaCl2; 2 mM MgCl2; 4 mM KCl; 150 mM NaCl; 10 mM Glucose; 10 mM HEPES (pH 7.4 with 1M NaOH; osmolarity, ˜310 mOsm).
hERG channels were activated when the voltage was first stepped to −50 mV for 300 ms from the −80 mV holding potential and then stepped to +20 mV for 5 seconds. At +20 mV the channels open and then largely inactivate, so the currents are relatively small. Upon returning to −50 mV from +20 mV, hERG currents transiently become much larger as inactivation is rapidly removed and then the channel closes. The first step to −50 mV for 300 ms was used as a baseline for measuring the peak amplitude during the step to −50 mV after channel activation. The peak tail current at −50 mV was measured both under control conditions and after addition of compound, each cell serving as its own control.
All compounds were prepared as 10 mM DMSO stocks in glass vials. Stock solutions were mixed by vigorous vortexing and sonication for about 2 minutes at room temperature. For testing, compounds were diluted in glass vials using an intermediate dilution step in pure DMSO and then further diluted to working concentrations in external solution. Dilutions were prepared no longer than 20 minutes before use.
For the electrophysiological recordings, after achieving the whole-cell configuration, cells were monitored for 90 seconds to assess stability and washed with external solution for 66 seconds. The voltage protocol described above was then applied to the cells every 12 seconds and throughout the whole procedure. Only cells with stable recording parameters and meeting specified health criteria were allowed to enter the compound addition procedure.
External solution containing 0.1% DMSO (vehicle) was applied to the cells first to establish the control peak current amplitude. After allowing the current to stabilize for 3 to 5 minutes, 1 μM and then 10 μM test compounds were applied. Each compound concentration was added 4 times and cells were kept in test solution until the effect of the compound reached steady state or for a maximum of 12 minutes. […] Washout in the external solution compartment was performed until the recovery of the current reached steady state.

[1] = biological target: T1, hNav 1.1 sodium channel isoform (Homo sapiens, UniProt P35498); experiment: hNav1.1 whole-cell voltage-clamp assay; settings: for inhibition at 1 µM: use-dependent block, 10 Hz, read-out: NAV1.1* UDB-10HZ
T1 construct: expressed in transfected cells; host or cells: HEK293, transient transfection (Qiagen Superfect)

[2] = biological target: wild-type human cardiac sodium channel, hNav1.5 (Homo sapiens, UniProt Q14524); experiment: Late INa screening assay (QPatch whole cell patch clamp, HEK293)
Sequence of wild-type human cardiac sodium channel, hNav1.5 (Q14524 whole entry): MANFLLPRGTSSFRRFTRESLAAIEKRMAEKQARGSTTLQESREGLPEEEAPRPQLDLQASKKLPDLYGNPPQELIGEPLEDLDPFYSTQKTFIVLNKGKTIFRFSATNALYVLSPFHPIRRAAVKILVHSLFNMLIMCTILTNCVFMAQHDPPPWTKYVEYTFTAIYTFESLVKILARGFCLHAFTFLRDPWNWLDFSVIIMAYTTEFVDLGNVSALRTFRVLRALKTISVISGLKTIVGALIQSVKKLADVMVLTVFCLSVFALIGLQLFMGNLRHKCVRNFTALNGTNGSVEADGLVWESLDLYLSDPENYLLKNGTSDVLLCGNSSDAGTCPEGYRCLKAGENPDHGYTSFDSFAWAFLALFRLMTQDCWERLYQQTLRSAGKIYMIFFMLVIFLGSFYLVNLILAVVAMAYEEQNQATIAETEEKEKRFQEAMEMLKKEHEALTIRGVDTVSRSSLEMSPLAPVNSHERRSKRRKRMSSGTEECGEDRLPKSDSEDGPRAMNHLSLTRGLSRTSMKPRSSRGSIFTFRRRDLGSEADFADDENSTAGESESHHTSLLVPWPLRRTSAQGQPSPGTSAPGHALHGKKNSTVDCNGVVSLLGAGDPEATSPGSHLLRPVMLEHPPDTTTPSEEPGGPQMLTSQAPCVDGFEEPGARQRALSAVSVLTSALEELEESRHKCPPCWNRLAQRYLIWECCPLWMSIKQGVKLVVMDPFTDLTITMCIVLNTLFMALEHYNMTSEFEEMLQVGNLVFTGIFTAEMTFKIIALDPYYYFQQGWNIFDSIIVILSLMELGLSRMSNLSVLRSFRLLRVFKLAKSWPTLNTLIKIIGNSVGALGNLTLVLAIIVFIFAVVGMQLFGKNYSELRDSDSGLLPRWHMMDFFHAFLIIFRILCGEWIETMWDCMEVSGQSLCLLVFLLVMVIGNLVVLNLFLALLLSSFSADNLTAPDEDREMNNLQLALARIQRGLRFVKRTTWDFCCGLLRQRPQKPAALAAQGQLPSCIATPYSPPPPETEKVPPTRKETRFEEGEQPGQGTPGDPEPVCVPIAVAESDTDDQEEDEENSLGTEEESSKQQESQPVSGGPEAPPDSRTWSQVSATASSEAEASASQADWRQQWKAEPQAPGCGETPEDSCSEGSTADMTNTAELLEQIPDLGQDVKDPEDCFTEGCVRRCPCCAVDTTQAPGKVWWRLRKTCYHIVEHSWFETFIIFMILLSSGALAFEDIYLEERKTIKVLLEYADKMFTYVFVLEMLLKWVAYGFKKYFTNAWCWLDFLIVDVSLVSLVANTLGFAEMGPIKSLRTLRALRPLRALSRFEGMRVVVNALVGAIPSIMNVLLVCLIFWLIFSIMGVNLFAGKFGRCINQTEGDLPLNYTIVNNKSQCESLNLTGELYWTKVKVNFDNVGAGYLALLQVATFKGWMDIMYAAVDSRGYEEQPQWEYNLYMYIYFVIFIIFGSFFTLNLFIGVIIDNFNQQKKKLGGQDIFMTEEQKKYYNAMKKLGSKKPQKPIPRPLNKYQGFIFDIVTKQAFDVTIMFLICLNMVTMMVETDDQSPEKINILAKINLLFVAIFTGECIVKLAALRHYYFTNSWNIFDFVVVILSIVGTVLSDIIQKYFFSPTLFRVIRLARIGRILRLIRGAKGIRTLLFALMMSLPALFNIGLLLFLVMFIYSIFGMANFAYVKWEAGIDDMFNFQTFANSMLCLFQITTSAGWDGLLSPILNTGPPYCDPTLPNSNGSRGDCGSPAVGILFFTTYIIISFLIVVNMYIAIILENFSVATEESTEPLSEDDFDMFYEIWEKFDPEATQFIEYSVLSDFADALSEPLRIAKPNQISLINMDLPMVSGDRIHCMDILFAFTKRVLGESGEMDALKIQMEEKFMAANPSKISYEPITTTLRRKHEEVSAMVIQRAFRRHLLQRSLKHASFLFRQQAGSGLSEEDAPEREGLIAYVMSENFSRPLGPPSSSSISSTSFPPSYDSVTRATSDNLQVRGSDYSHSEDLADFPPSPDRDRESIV
Outline: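 HEK293 stably expressing hNav1.5 without beta subunits, recorded at 23-25° C. Late current was induced by 10 μM tefluthrin. Cells were depolarized from −120 mV to −20 mV for 250 ms at 0.1 Hz. Compounds were tested at 1 μM in extracellular solution, with baseline taken in 0Na-ECF; output is percent block of late INa.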

[3] = HEK293, % Inhibition at 1 uM, read-out: Late INa*
[4] = HEK293, percent block of late INa, compound at 1 μM, 10 μM Tefluthrin, read-out: Late INa 1 μM

Sequence of hERG potassium channel (Q12809 whole entry): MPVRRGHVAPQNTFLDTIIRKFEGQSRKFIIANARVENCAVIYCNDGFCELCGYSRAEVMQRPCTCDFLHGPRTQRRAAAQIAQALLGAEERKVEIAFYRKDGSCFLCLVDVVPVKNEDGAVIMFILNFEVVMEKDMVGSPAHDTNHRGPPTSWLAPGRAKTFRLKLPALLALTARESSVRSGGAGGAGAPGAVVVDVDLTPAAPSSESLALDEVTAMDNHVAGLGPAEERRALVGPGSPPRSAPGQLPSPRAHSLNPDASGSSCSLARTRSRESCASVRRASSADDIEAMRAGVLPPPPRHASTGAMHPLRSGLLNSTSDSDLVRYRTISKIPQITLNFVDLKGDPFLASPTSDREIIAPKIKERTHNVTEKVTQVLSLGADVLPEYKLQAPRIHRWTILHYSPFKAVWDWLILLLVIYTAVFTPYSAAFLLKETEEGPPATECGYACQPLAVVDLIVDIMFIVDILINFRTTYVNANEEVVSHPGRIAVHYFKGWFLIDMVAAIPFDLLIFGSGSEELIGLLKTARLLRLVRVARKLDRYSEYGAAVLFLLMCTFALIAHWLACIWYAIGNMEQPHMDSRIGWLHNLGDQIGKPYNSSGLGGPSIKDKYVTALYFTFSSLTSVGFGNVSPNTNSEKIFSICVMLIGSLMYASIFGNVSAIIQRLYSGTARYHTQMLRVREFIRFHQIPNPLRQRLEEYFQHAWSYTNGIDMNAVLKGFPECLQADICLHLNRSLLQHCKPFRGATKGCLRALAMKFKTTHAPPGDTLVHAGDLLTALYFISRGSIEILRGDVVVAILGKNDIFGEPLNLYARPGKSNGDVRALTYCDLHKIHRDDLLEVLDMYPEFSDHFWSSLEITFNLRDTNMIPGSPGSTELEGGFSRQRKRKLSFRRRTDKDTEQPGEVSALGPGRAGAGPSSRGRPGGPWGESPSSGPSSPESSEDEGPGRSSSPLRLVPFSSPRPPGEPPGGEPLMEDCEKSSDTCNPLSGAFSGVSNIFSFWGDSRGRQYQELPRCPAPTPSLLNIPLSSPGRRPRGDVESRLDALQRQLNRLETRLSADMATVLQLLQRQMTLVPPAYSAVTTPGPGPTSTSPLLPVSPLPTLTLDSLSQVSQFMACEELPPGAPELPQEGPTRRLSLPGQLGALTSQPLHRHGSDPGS

Row | SMILES | hERG (hERG potassium channel) | inhibition at 1 µM [1] [%] | inhibition at 1 µM [2, 3] [%] | inhibition at 1 µM [2, 4] [%] | inhibited (or reduced) the activity of the hERG potassium channel (hERG potassium channel; at 1 μM) [%] | IC50 ([1]; frequency of 10 Hz, read-out: IC50 block of hNav 1.1 peak INa) [µM] | IC50 ([1]; frequency of 25 Hz, read-out: IC50 block of hNav 1.1) [µM]
1 | O=C1c2cc(C#Cc3ccc(C(F)(F)F)cc3)ccc2OCCN1Cc1ncccn1 [VIII-6, 4-(pyrimidin-2-ylmethyl)-7-((4-(trifluoromethyl)phenyl)ethynyl)-3,4-dihydrobenzo[f][1,4]oxazepin-5(2H)-one] | <10 | 6 | 38 | 38 | – | – | –
2 | O=C1c2cc(C#Cc3ccc(OC(F)(F)F)cc3)ccc2OCCN1Cc1ncccn1 [VIII-4, 4-(pyrimidin-2-ylmethyl)-7-((4-(trifluoromethoxy)phenyl)ethynyl)-3,4-dihydrobenzo[f][1,4]oxazepin-5(2H)-one] | 30 | 5 | 61 | 61 | – | – | –
3 | O=C1CN(Cc2ccccc2)C(=O)c2cc(-c3ccc(C(F)(F)F)cc3)ccc2N1 [Compound X-8, 4-benzyl-7-(4-(trifluoromethyl)phenyl)-3,4-dihydro-1H-benzo[e][1,4]diazepine-2,5-dione] | <10 | -12 | 50 | 50 | – | – | –
4 | O=C1c2cc(-c3ccc(Cl)cc3)ccc2OCCN1Cc1ncccn1 [II-88, 7-(4-chlorophenyl)-4-(pyrimidin-2-ylmethyl)-3,4-dihydrobenzo[f][1,4]oxazepin-5(2H)-one] | 26 | -10 | 41 | 41 | – | – | –
5 | O=C1c2cc(-c3ccc(C(F)(F)F)cc3Cl)ccc2OCCN1Cc1ncccn1 [II-110, 7-(2-chloro-4-(trifluoromethyl)phenyl)-4-(pyrimidin-2-ylmethyl)-3,4-dihydrobenzo[f][1,4]oxazepin-5(2H)-one] | 26 | -4 | 35 | 35 | – | – | –
6 | O=C1c2cc(-c3ccc(C(F)(F)F)cc3)ccc2OC[C@H]2CN(CC(F)F)CCN12 [II-22, (R)-2-(2,2-difluoroethyl)-8-(4-(trifluoromethyl)phenyl)-3,4,12,12a-tetrahydro-1H-benzo[f]pyrazino[2,1-c][1,4]oxazepin-6(2H)-one] | 16 | 3 | 30 | 30 | – | – | –
7 | O=C1c2cc(-c3ccc(C(F)(F)F)cc3F)ccc2OCCN1Cc1ncccn1 [II-105, 7-(2-fluoro-4-(trifluoromethyl)phenyl)-4-(pyrimidin-2-ylmethyl)-3,4-dihydrobenzo[f][1,4]oxazepin-5(2H)-one] | <10 | -17 | 45 | 45 | < 10 | – | –
8 | O=C(c1ncccn1)N1CCOc2ccc(-c3ccc(OC(F)(F)F)cc3)cc2C1 [III-1, pyrimidin-2-yl(7-(4-(trifluoromethoxy)phenyl)-2,3-dihydrobenzo[f][1,4]oxazepin-4(5H)-yl)methanone] | <10 | -1 | 33 | 33 | – | – | –
9 | O=C1c2cc(-c3ccc(Cl)cc3F)ccc2OCCN1Cc1ncccn1 [II-117, 7-(4-chloro-2-fluorophenyl)-4-(pyrimidin-2-ylmethyl)-3,4-dihydrobenzo[f][1,4]oxazepin-5(2H)-one] | <10 | -11 | 37 | 37 | – | – | –
10 | O=C1c2cc(-c3ccc(C(F)(F)F)cc3)ccc2OC[C@H]2CN(CC(F)(F)F)CCN12 [II-83, (R)-2-(2,2,2-trifluoroethyl)-8-(4-(trifluoromethyl)phenyl)-3,4,12,12a-tetrahydro-1H-benzo[f]pyrazino[2,1-c][1,4]oxazepin-6(2H)-one] | 21 | -2 | 31 | 31 | – | – | –
11 | O=C1c2cc(-c3ccc(C(F)(F)F)cc3)ccc2OCCN1Cc1cn2ccccc2n1 [II-129, 4-(imidazo[1,2-a]pyridin-2-ylmethyl)-7-(4-(trifluoromethyl)phenyl)-3,4-dihydrobenzo[f][1,4]oxazepin-5(2H)-one] | 17 | 8 | 33 | 33 | – | – | –
12 | CC(C)(C)c1ccc(-c2ccc3c(c2)C(=O)N(Cc2ncccn2)CCO3)cc1 [II-98, 7-(4-tert-butylphenyl)-4-(pyrimidin-2-ylmethyl)-3,4-dihydrobenzo[f][1,4]oxazepin-5(2H)-one] | <10 | -1 | 39 | 39 | – | – | –
13 | O=C1c2cc(-c3ccc(OC(F)(F)F)cc3)ccc2OCCN1Cc1ncccn1 [II-73, 4-(pyrimidin-2-ylmethyl)-7-(4-(trifluoromethoxy)phenyl)-3,4-dihydrobenzo[f][1,4]oxazepin-5(2H)-one] | – | – | 42 | 42 | – | > 100 | 3.4

From US9676760B2, “Fused heterocyclic compounds as ion channel modulators” (Gilead Sciences, Inc., priority 2011, dated 2017)
